Drawing on patent US8501750B2, “Heterocyclic compound and use thereof” (Takeda Pharmaceutical Company Limited, priority 2007, dated 2013), this text covers activation and IC50 for 18 molecules.

Test [1] addresses PPARγ (Homo sapiens (Human), UniProt P37231). As to the kind of experiment: PPARγ activating action (luciferase reporter in PPARγ:RXRα:4ERPP/CHO-K1 cells). Type of test: cell-based. The settings on record: CHO-K1, 24 h, read-out: PPARγ activating action (activation % (1 μM)). How it is done: Then the medium was removed from the 96-well half area white plate, 45 μl of Ham's F12 medium containing 0.1% fatty acid-free bovine serum albumin (BSA) and 5 μl of test compound were added, and the cells were cultured in a CO2 gas incubator at 37° C. for 1 day. The medium was removed and 20 μl of PicaGene 7.5 [manufactured by Dainippon Ink and Chemicals Corporation, Japan] diluted 2-fold with HBSS (HANKS' BALANCED SALT SOLUTION) [manufactured by BIO WHITTAKER, USA] was added. After stirring, the luciferase activity was determined using 1420 ARVO Multilabel Counter [manufactured by PerkinElmer, USA]. […] A CHO-K1 cell cultured in a 150 cm^2 cell culture flask [manufactured by Corning Costar Corporation, USA] containing Ham's F12 medium [manufactured by INVITROGEN, USA] supplemented with 10% fetal bovine serum [manufactured by INVITROGEN, USA] was scraped by treating with 0.5 g/L trypsin-0.2 g/L EDTA (ethylenediaminetetraacetic acid) [manufactured by Life Technologies, Inc., USA], and then the cell was washed with PBS (Phosphate-buffered saline) [manufactured by INVITROGEN, USA], centrifuged (1000 rpm, 5 minutes) and suspended in PBS. Subsequently, DNA was introduced into the cell under the conditions shown below using GENE PULSER [manufactured by Bio-Rad Laboratories, USA]. […] Subsequently, the cell was transferred into a F12 medium containing 10% fetal bovine serum and cultured for 24 hours, and then the cell was scraped again and centrifuged, and then suspended in Ham's F12 medium containing 10% fetal bovine serum supplemented with 500 μg/ml of Geneticin [manufactured by INVITROGEN, USA] and 250 μg/ml of Zeocin [manufactured by INVITROGEN, USA]. The obtained suspension was diluted to the density of 10^4 cells/ml and inoculated in a 96-well plate [manufactured by Corning Costar Corporation, USA], which was cultured in a CO2 gas incubator at 37° C., whereby obtaining a Geneticin- and Zeocin-resistant transformant.
(In general: In a reporter assay the amount or activity of a reporter protein is the signal.)

The target in test [2] is AT1 receptor (Homo sapiens (Human), UniProt P30556). As to the kind of experiment: AT1 receptor binding inhibitory action.
Sequence of AT1 receptor (P30556 whole entry): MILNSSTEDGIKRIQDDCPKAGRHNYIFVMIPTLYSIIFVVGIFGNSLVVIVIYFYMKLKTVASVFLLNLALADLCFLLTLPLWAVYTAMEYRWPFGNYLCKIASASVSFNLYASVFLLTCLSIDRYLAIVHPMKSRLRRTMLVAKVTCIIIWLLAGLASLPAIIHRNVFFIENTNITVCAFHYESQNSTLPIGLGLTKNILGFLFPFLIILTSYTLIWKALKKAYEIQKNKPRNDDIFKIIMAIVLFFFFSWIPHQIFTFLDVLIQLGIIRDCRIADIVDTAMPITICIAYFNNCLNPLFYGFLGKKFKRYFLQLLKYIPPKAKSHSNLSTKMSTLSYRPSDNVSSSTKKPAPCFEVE
[3] abbreviates: test compound 1 μM, luciferase activity relative to control compound X (1 μM) = 100%, non-administration group = 0%.

Counter-ions that a name gives are not always drawn. Like-named read-outs stand apart in the source and are kept apart here.

Sequence of PPARγ (P37231 29-505): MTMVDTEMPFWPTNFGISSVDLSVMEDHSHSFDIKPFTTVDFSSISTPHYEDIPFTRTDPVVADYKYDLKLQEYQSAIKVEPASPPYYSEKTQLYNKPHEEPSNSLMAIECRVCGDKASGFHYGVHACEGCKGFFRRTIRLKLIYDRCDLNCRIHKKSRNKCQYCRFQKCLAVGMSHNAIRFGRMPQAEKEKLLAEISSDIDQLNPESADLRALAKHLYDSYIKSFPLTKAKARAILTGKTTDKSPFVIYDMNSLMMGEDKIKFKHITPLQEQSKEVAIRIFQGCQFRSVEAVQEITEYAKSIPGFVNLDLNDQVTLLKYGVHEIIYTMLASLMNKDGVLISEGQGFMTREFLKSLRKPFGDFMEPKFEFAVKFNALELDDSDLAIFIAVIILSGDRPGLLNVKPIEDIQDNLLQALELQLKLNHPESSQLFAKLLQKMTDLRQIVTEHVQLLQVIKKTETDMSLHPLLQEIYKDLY
Sequence of PPARγ (P19793 whole entry partner): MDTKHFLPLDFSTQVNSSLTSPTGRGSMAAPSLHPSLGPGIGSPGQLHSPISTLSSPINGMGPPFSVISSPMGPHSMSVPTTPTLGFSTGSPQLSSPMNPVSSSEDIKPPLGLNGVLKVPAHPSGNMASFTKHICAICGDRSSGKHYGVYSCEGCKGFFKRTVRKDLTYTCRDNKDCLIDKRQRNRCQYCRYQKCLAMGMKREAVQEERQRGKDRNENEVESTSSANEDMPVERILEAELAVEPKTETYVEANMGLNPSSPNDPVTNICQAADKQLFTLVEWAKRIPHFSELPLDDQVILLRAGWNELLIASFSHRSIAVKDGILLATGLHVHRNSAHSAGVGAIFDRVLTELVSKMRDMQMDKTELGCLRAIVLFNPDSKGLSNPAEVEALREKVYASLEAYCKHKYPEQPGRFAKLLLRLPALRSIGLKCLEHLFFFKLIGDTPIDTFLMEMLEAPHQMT

Consider `CCc1cc2c(=O)n(CC(=O)c3ccc(OC)cc3)c(=O)n(Cc3ccc(-c4ccccc4-c4noc(O)n4)cc3Br)c2s1` [Ex. 194, 1-{[3-bromo-2′-(5-oxo-4,5-dihydro-1,2,4-oxadiazol-3-yl)biphenyl-4-yl]methyl}-6-ethyl-3-[2-(4-methoxyphenyl)-2-oxoethyl]thieno[2,3-d]pyrimidine-2,4(1H,3H)-dione potassium salt], for which the activation at 1 µM in test [1] came out at 34%. In test [2], the IC50 (as a rule, the midpoint of a concentration-inhibition curve) came to 1.7 nM.
As to `CCc1cc2c(=O)n(CCc3ccc(F)cc3)c(=O)n(Cc3ccc(-c4ccccc4-c4noc(=O)[nH]4)cc3)c2s1` [Example 56, 6-ethyl-3-[2-(4-fluorophenyl)ethyl]-1-{[2′-(5-oxo-4,5-dihydro-1,2,4-oxadiazol-3-yl)biphenyl-4-yl]methyl}thieno[2,3-d]pyrimidine-2,4(1H,3H)-dione], the activation at 1 µM in test [1] (setting [3]) is 65%. The same molecule gave an IC50 in test [2] of 0.34 nM.
Regarding `CCc1cc2c(=O)n(CC(=O)c3nc4ccccc4n3C)c(=O)n(Cc3ccc(-c4ccccc4-c4noc(=O)[nH]4)cc3)c2s1` [Ex. 140, 6-ethyl-3-[2-(1-methyl-1H-benzoimidazol-2-yl)-2-oxoethyl]-1-{[2′-(5-oxo-4,5-dihydro-1,2,4-oxadiazol-3-yl)biphenyl-4-yl]methyl}thieno[2,3-d]pyrimidine-2,4(1H,3H)-dione], the activation at 1 µM in test [1] (setting [3]) was 26%. In test [2], this molecule displayed an IC50 of 1.7 nM.
In the case of `CCc1cc2c(=O)n(-c3ccc(OC(C)C)cc3)c(=O)n(Cc3ccc(-c4ccccc4-c4noc(=O)[nH]4)cc3F)c2s1` [Ex. 180, 6-ethyl-1-{[3-fluoro-2′-(5-oxo-4,5-dihydro-1,2,4-oxadiazol-3-yl)biphenyl-4-yl]methyl}-3-(4-isopropoxyphenyl)thieno[2,3-d]pyrimidine-2,4(1H,3H)-dione], the activation at 1 µM in test [1] (setting [3]) was determined as 50%. In test [2], this molecule yielded an IC50 of 1.6 nM.
In the case of `CCc1cc2c(=O)n(CC(=O)C3CCCCC3)c(=O)n(Cc3ccc(-c4ccccc4-c4noc(=O)[nH]4)cc3)c2s1` [Ex. 205, 3-(2-cyclohexyl-2-oxoethyl)-6-ethyl-1-{[2′-(5-oxo-4,5-dihydro-1,2,4-oxadiazol-3-yl)biphenyl-4-yl]methyl}thieno[2,3-d]pyrimidine-2,4(1H,3H)-dione], the activation at 1 µM in test [1] (setting [3]) worked out at 69%. Moreover, the IC50 in test [2] is 1.5 nM.
On the same counts, the results for `CCc1cc2c(=O)n(CC(=O)c3ccc(OC)cc3)c(=O)n(Cc3ccc(-c4ccccc4-c4noc(=O)[nH]4)cc3F)c2s1` [Ex. 83, 6-ethyl-1-{[3-fluoro-2′-(5-oxo-4,5-dihydro-1,2,4-oxadiazol-3-yl)biphenyl-4-yl]methyl}-3-[2-(4-methoxyphenyl)-2-oxoethyl]thieno[2,3-d]pyrimidine-2,4(1H,3H)-dione] are 37% and 0.77 nM.
For the molecule `COc1ccc(C(=O)Cn2c(=O)c3cc(C4CC4)sc3n(Cc3c(F)cc(-c4ccccc4-c4noc(O)n4)cc3F)c2=O)cc1` [Ex. 135, 6-cyclopropyl-1-{[3,5-difluoro-2′-(5-oxo-4,5-dihydro-1,2,4-oxadiazol-3-yl)biphenyl-4-yl]methyl}-3-[2-(4-methoxyphenyl)-2-oxoethyl]thieno[2,3-d]pyrimidine-2,4(1H,3H)-dione potassium salt], in test [1], the activation at 1 µM worked out at 71%. Further, the half-maximal inhibitory concentration (IC50) in test [2] stood at 1.5 nM.
For `CCc1cc2c(=O)n(CC(=O)c3ccc(OC)cc3)c(=O)n(Cc3ccc(-c4ccccc4-c4noc(O)n4)cc3OC)c2s1` [Ex. 192, 6-ethyl-1-{[3-methoxy-2′-(5-oxo-4,5-dihydro-1,2,4-oxadiazol-3-yl)biphenyl-4-yl]methyl}-3-[2-(4-methoxyphenyl)-2-oxoethyl]thieno[2,3-d]pyrimidine-2,4(1H,3H)-dione potassium salt], in test [1], the activation at 1 µM turned out to be 49%. Also, in test [2], the IC50 came to 2.3 nM.
Take `CCc1cc2c(=O)n(CC(=O)C34CC5CC(CC(C5)C3)C4)c(=O)n(Cc3ccc(-c4ccccc4-c4noc(=O)[nH]4)cc3)c2s1` [Ex. 132, 3-[2-(1-adamantyl)-2-oxoethyl]-6-ethyl-1-{[2′-(5-oxo-4,5-dihydro-1,2,4-oxadiazol-3-yl)biphenyl-4-yl]methyl}thieno[2,3-d]pyrimidine-2,4(1H,3H)-dione]: the activation at 1 µM in test [1] (setting [3]) was 50%. Further, the IC50 in test [2] came out at 1.7 nM.
`CCc1cc2c(=O)n(CC(=O)c3ccc(OC)c(F)c3)c(=O)n(Cc3ccc(-c4ccccc4-c4noc(=O)[nH]4)cc3F)c2s1` [Ex. 157, 6-ethyl-3-[2-(3-fluoro-4-methoxyphenyl)-2-oxoethyl]-1-{[3-fluoro-2′-(5-oxo-4,5-dihydro-1,2,4-oxadiazol-3-yl)biphenyl-4-yl]methyl}thieno[2,3-d]pyrimidine-2,4(1H,3H)-dione]: the activation at 1 µM in test [1] (setting [3]) turned out to be 35%. In test [2], this molecule had an IC50 of 1.4 nM.
In the same order, the values of `CCc1cc2c(=O)n(CC(=O)c3ccc(OC)cc3)c(=O)n(Cc3ccc(-c4cc(F)ccc4-c4noc(=O)[nH]4)cc3)c2s1` [Ex. 203, 6-ethyl-1-{[5′-fluoro-2′-(5-oxo-4,5-dihydro-1,2,4-oxadiazol-3-yl)biphenyl-4-yl]methyl}-3-[2-(4-methoxyphenyl)-2-oxoethyl]thieno[2,3-d]pyrimidine-2,4(1H,3H)-dione] are 28% and 1.8 nM.
`O=C(Cn1c(=O)c2cc(C3CC3)sc2n(Cc2ccc(-c3ccccc3-c3noc(=O)[nH]3)cc2)c1=O)c1ccc(F)cc1` [Ex. 63, 6-cyclopropyl-3-[2-(4-fluorophenyl)-2-oxoethyl]-1-{[2′-(5-oxo-4,5-dihydro-1,2,4-oxadiazol-3-yl)biphenyl-4-yl]methyl}thieno[2,3-d]pyrimidine-2,4(1H,3H)-dione]: in test [1] (setting [3]), the activation at 1 µM came to 31%. The IC50 in test [2] is 1.1 nM.
In the case of `COc1ccccc1C(=O)Cn1c(=O)c2cc(CC(F)(F)F)sc2n(Cc2c(F)cc(-c3ccccc3-c3noc(O)n3)cc2F)c1=O` [Ex. 127, 1-{[3,5-difluoro-2′-(5-oxo-4,5-dihydro-1,2,4-oxadiazol-3-yl)biphenyl-4-yl]methyl}-3-[2-(2-methoxyphenyl)-2-oxoethyl]-6-(2,2,2-trifluoroethyl)thieno[2,3-d]pyrimidine-2,4(1H,3H)-dione potassium salt], the activation at 1 µM in test [1] was 53%. This molecule had an IC50 in test [2] of 1.4 nM.
`CCc1cc2c(=O)n(CC(=O)c3ccc(Cl)cc3)c(=O)n(Cc3ccc(-c4ccccc4-c4noc(=O)[nH]4)cc3)c2s1` [Ex. 121, 3-[2-(4-chlorophenyl)-2-oxoethyl]-6-ethyl-1-{[2′-(5-oxo-4,5-dihydro-1,2,4-oxadiazol-3-yl)biphenyl-4-yl]methyl}thieno[2,3-d]pyrimidine-2,4(1H,3H)-dione]: the activation at 1 µM in test [1] (setting [3]) was found to be 28%. For the same molecule, in test [2], the IC50 worked out at 1.7 nM.
Regarding `CC(C)(C)C(O)Cn1c(=O)c2cc(C3CC3)sc2n(Cc2ccc(-c3ccccc3-c3noc(=O)[nH]3)cc2)c1=O` (stereo not drawn) [Ex. 143, 6-cyclopropyl-3-(2-hydroxy-3,3-dimethylbutyl)-1-{[2′-(5-oxo-4,5-dihydro-1,2,4-oxadiazol-3-yl)biphenyl-4-yl]methyl}thieno[2,3-d]pyrimidine-2,4(1H,3H)-dione], in test [1] (setting [3]), the activation at 1 µM was determined as 45%. For the same molecule, in test [2], the IC50 turned out to be 1.4 nM.
Consider `COc1ccccc1C(=O)Cn1c(=O)c2cc(C3CC3)sc2n(Cc2ccc(-c3ccccc3-c3noc(O)n3)cc2)c1=O` [Ex. 99, 6-cyclopropyl-3-[2-(2-methoxyphenyl)-2-oxoethyl]-1-{[2′-(5-oxo-4,5-dihydro-1,2,4-oxadiazol-3-yl)biphenyl-4-yl]methyl}thieno[2,3-d]pyrimidine-2,4(1H,3H)-dione potassium salt], for which the activation at 1 µM in test [1] was determined as 56%. In test [2], this molecule had an IC50 of 1.2 nM.
In the case of `CCc1cc2c(=O)n(CC(=O)C(C)(C)C)c(=O)n(Cc3ccc(-c4ccccc4-c4noc(=O)[nH]4)cc3)c2s1` [Ex. 131, 3-(3,3-dimethyl-2-oxobutyl)-6-ethyl-1-{[2′-(5-oxo-4,5-dihydro-1,2,4-oxadiazol-3-yl)biphenyl-4-yl]methyl}thieno[2,3-d]pyrimidine-2,4(1H,3H)-dione], in test [1] (setting [3]), the activation at 1 µM was found to be 72%. In test [2], the IC50 was determined as 1.2 nM.
`CCO/N=C(/Cn1c(=O)c2cc(CC)sc2n(Cc2ccc(-c3ccccc3-c3noc(=O)[nH]3)cc2)c1=O)c1ccc(OC)cc1` [Ex. 210, 3-[2-(ethoxyimino)-2-(4-methoxyphenyl)ethyl]-6-ethyl-1-{[2′-(5-oxo-4,5-dihydro-1,2,4-oxadiazol-3-yl)biphenyl-4-yl]methyl}thieno[2,3-d]pyrimidine-2,4(1H,3H)-dione]: the activation at 1 µM in test [1] (setting [3]) amounted to 31%. In test [2], this molecule displayed an IC50 of 1.6 nM.
